From patent US10987366B2, “Methods and compositions for protection of cells and tissues from computed tomography radiation” (The University of Chicago, priority 2010, dated 2021)

Assays:
[1] = test system: RKO36 cells; experiment: Micronuclei formation in irradiated RKO36 cells; assay type: cell-based, human
Description: Under the treatment conditions in which cells were exposed to WR1065 either 30 min before or 3 h following irradiation the protective effect is the result of a direct interaction between the thiol taken up by the cells and the damage induced by radiation. This direct protective effect disappeared when the drug was added 6 h following irradiation. However, when cells were exposed to the thiol 24 h prior to irradiation to allow for the induction of elevated MnSOD enzyme levels, a protective effect was again observed ([…]). In contrast to the data described in FIG. 4A, the protection described in FIG. 4B was mediated not directly by thiol action (Grdina et al., 1995) but as a result of a thiol-induced adaptive response mediated through the activation of NFκB resulting in the elevation of MnSOD activity (Murley et al., 2002; Murley et al., 2004; Murley et al., 2006; Murley et al., 2007; Murley et al., 2008). For comparison, a radiation-induced adaptive response was investigated by first exposing RKO36 cells to 10 cGy and then challenging with a 2 Gy dose 0, 4, 8, 12, 16, 20, and 24 h later (see FIG. 5).

[2] = test system: RKO36 cells; experiment: GFP direct repeat assay of delayed hyperrecombination (GFP+/- colonies); assay type: cell-based, human
Description: Gene conversion can produce a local loss of heterozygosity (LOH) as well as deletions and inversions at linked repeats and translocations (Nickoloff, 2002). The inventor has utilized a green fluorescence protein (GFP)-based assay using human RKO-derived cells to study the role of delayed hyper-recombination in radiation-induced genomic instability (Huang et al., 2004). A GFP direct repeat homologous recombination substrate is incorporated in RKO cells.
Genomic instability can be measured by analysis of delayed hyperrecombination and mutation/deletion at the GFP direct repeat substrate. GFP-RKO cells can be GFP− or GFP+. When these cells are plated, colonies arising from single cells are either homogenously colorless (GFP−) or green (GFP+). […] Mixed colonies arise by delayed hyperrecombination and can easily be scored using the criteria of having at least >4 cells per colony having an altered fluorescent phenotype. The frequency of induced instability can be calculated as the number of GFP+/− colonies per total surviving colonies scored.
Genomic instability was evaluated in RKO36 cells by analysis of delayed hyperrecombination and mutation/deletion at the GFP direct repeat substrate. […] The frequency of induced instability is calculated as the number of GFP+/− colonies per total surviving colonies scored (Huang et al., 2004). […]

## NCCCNCCS [WR1065, 2-[(aminopropyl)amino]ethanethiol]
[1]; 2 Gy challenge 24 h following WR1065 exposure
  micronuclei formation, thiol-induced adaptive response: reduction of micronuclei formation to unirradiated background levels
[1]; 2 Gy, WR1065 30 min following irradiation (FIG. 4B)
  frequency of micronuclei formation: significantly reduced
[1]; 2 Gy, WR1065 30 min prior to irradiation (FIG. 4A)
  frequency of micronuclei formation: significantly reduced
[1]; 2 Gy, WR1065 1 h following irradiation (FIG. 4B)
  frequency of micronuclei formation: significantly reduced
[1]; 2 Gy, WR1065 2 h following irradiation (FIG. 4B)
  frequency of micronuclei formation: significantly reduced
[1]; 2 Gy, WR1065 3 h following irradiation (FIG. 4B)
  frequency of micronuclei formation: significantly reduced
[1]; 2 Gy, WR1065 24 h prior to irradiation (FIG. 4A)
  frequency of micronuclei formation: significantly reduced
[1]; 2 Gy, drug added 6 h following irradiation
  direct protective effect against micronuclei formation: disappeared
[2]; 4 mM WR1065 for 30 min, no irradiation, P=0.02 vs non-WR1065 irradiated cells (2.7%)
  frequency of GFP+/- colonies: 1.1%
[2]; 10 cGy given 24 h following 4 mM WR1065 for 30 min, P=0.05 vs non-WR1065 irradiated cells (2.7%)
  frequency of GFP+/- colonies: 1.6%
